Laboratory results as given in PubChem BioAssay (NCI).
Values after ≈ are worked out from the molar mass of the structure shown. Values joined by “and” are separate entries in the source; they are usually repeats but may differ in a detail not shown here. Equal values may be shown once.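 Cells were grown in 96-well plates and exposed to each compound for 48 hours at five concentrations; endpoints were interpolated linearly between bracketing concentrations, or set to the highest concentration if not reached. GI50: concentration for 50% inhibition of growth. TGI: concentration producing complete growth inhibition.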

Columns and labels:
Assay in all cases: growth of human tumour cells (NCI), 48 h
786-0 renal = tested on: 786-0 renal
CCRF-CEM leukemia = tested on: CCRF-CEM leukemia
HCT-116 colon = tested on: HCT-116 colon
MCF7 breast = tested on: MCF7 breast
NCI-H23 lung = tested on: NCI-H23 lung
NCI-H460 lung = tested on: NCI-H460 lung
NCI-H522 lung = tested on: NCI-H522 lung
OVCAR-8 ovarian = tested on: OVCAR-8 ovarian
SNB-19 CNS = tested on: SNB-19 CNS
NCI/ADR-RES ovarian = tested on: NCI/ADR-RES ovarian

Compound	TGI (786-0 renal) [µM]	TGI (CCRF-CEM leukemia)	TGI (HCT-116 colon)	TGI (MCF7 breast)	TGI (NCI-H23 lung)	TGI (NCI-H460 lung)	TGI (NCI-H522 lung) [µM]	TGI (OVCAR-8 ovarian)	TGI (SNB-19 CNS)	TGI (NCI/ADR-RES ovarian)	GI50 (CCRF-CEM leukemia)	GI50 (HCT-116 colon)	GI50 (MCF7 breast) [µg/mL]	GI50 (NCI-H23 lung) [µg/mL]	GI50 (NCI-H460 lung) [µg/mL]	GI50 (NCI/ADR-RES ovarian) [µg/mL]	GI50 (OVCAR-8 ovarian) [µg/mL]	GI50 (SNB-19 CNS) [µg/mL]	GI50 (NCI-H522 lung) [µM]
CC1(C)CCC2(C(=O)OC3OC(CO)C(O)C(O)C3O)CCC3(C)C(=CCC4C5(C)CCC(OC6OC(CO)C(O)C(O)C6O)C(C)(C)C5CCC43C)C2C1 (configuration not stated)	> 25	14 µM	> 25 µM	> 25 µM	> 25 µM	> 25 µM	12.9	> 25 µM	> 25 µM										
N[C@H]1CCN(c2c(F)cc3c(=O)c(C(=O)O)cn4c3c2Oc2cc3c(ccc5ccccc53)cc2-4)C1	> 100		> 100 µM	> 100 µM	> 100 µM	5.28 µM	> 100	> 100 µM	> 100 µM	> 100 µM									
COc1ccc(N=c2ssc(C(=S)Nc3ccc(OC)cc3)c2S)cc1	> 100	> 100 µM	> 100 µM	> 100 µM	> 100 µM	> 100 µM	> 100	> 100 µM	> 100 µM	> 100 µM									
Nc1ccc2c(c1)C(=O)N(O)C2=O		> 100 µM	> 100 µM		> 100 µM	> 100 µM			> 100 µM										
CC1=C2C(=O)OCC23C=COC3(C)O1 (configuration not stated)	> 100	> 100 µM	> 100 µM	> 100 µM	> 100 µM	> 100 µM	78.9	> 100 µM	> 100 µM	> 100 µM									
N#CC(c1ccccc1)N1CCCN(C(C#N)c2ccccc2)C1c1ccccc1O (configuration not stated)	> 100	> 100 µM	> 100 µM	> 100 µM	> 100 µM	> 100 µM	> 100	> 100 µM	> 100 µM	> 100 µM									
CCOC(=O)/C(=C\NCC(OCC)OCC)c1nc2ccccc2[nH]1	> 100	> 100 µM	> 100 µM	> 100 µM	56.4 µM	71.5 µM	62.1	> 100 µM	> 100 µM	24.4 µM									
CN(C)CCn1c(=O)c2ccc3c4c(nn3CCN(C)C)c3cc(N)ccc3n(c1=O)c24	0.0573		0.0716 µM	1.17 µM	0.021 µM	0.0904 µM	0.27	0.454 µM	0.455 µM	0.749 µM									
COc1ccc(/C=C(\C#N)c2nc(N)nc(N3N=C(C)CC3(C)C)n2)c(O)c1	30	76.9 µM	31.4 µM	45.5 µM	42.3 µM	38.2 µM	38.9	> 100 µM	> 100 µM	97.3 µM									
O=CN1CCN(C(=O)c2cc(Cl)cc(Cl)c2)C1=S	15.7	25.5 µM	32.7 µM	20.8 µM	32.5 µM	51.2 µM	15.4	33.6 µM	35 µM	80.7 µM									
CC(=O)OC1CC(O)CC2=CCC3C4CCC(C(C)(O)C(O)CC5COC(=O)C5C)C4(C)CCC3C21C (configuration not stated)	> 25	> 25 µM	> 25 µM	> 25 µM	> 25 µM	> 25 µM	> 25	> 25 µM	> 25 µM										
O=S1(=O)OC(c2ccc(O)cc2)(c2ccc(O)cc2)c2ccccc21	> 100	> 100 µM	> 100 µM	> 100 µM	> 100 µM	> 100 µM	> 100	> 100 µM	> 100 µM	> 100 µM									
[O-][N+](CCO)(CCO)c1ncnc2nc[nH]c12	> 100	> 100 µM	> 100 µM	> 100 µM	> 100 µM		> 100	> 100 µM	> 100 µM	> 100 µM									
O=[n+]1c2c(n([O-])c3ccccc31)-c1cccc3cccc-2c13		> 100 µM	> 100 µM	> 100 µM	> 100 µM	> 100 µM	> 100	> 100 µM	> 100 µM	> 100 µM									
CC[C@@]1(O)C(=O)OCc2c1cc1n(c2=O)Cc2c-1nc1ccc(O)cc1c2CC[Si](C)(C)C		0.464 µM			0.0103 µM and 0.0118 µM	0.00445 µM and 0.0117 µM	0.299	0.197 µM	> 100 µM	1.84 µM and 1.56 µM									
COc1ccc(N=C2C(=O)C3=C(OC(C)(C)CC3)c3ccccc32)cc1	1.99	4.43 µM	1.48 µM	1.87 µM	13 µM	5.72 µM	2.45	8.37 µM	2.36 µM	16.7 µM									
CCOC(=O)C1CCn2c(nc3c2c(=O)n(C)c(=O)n3C)S1 (configuration not stated)		> 100 µM	> 100 µM		> 100 µM	> 100 µM	> 100	> 100 µM	> 100 µM										
Nc1nc(N)c2c(n1)NC(c1ccccc1)CC(/C=C/c1ccc(Cl)cc1)=N2 (configuration not stated)	12	50.4 µM	4.76 µM	16 µM	16.1 µM	18 µM	5.32	37.2 µM	29.1 µM	11.3 µM									
Cc1cc(O)c(C(C)C)cc1CN1CCCCC1	> 100	> 100 µM	> 100 µM	> 100 µM	> 100 µM	> 100 µM	> 100	> 100 µM	> 100 µM	> 100 µM									
COC(=O)C1C(O)CCC2CN3CCc4c([nH]c5cccc(OC)c45)C3CC21 (configuration not stated)	> 100	> 100 µM	> 100 µM	> 100 µM	> 100 µM	> 100 µM	> 100	> 100 µM	> 100 µM										

Compound	TGI (786-0 renal) [µM]	TGI (CCRF-CEM leukemia)	TGI (HCT-116 colon)	TGI (MCF7 breast)	TGI (NCI-H23 lung)	TGI (NCI-H460 lung)	TGI (NCI-H522 lung) [µM]	TGI (OVCAR-8 ovarian)	TGI (SNB-19 CNS)	TGI (NCI/ADR-RES ovarian)	GI50 (CCRF-CEM leukemia)	GI50 (HCT-116 colon)	GI50 (MCF7 breast) [µg/mL]	GI50 (NCI-H23 lung) [µg/mL]	GI50 (NCI-H460 lung) [µg/mL]	GI50 (NCI/ADR-RES ovarian) [µg/mL]	GI50 (OVCAR-8 ovarian) [µg/mL]	GI50 (SNB-19 CNS) [µg/mL]	GI50 (NCI-H522 lung) [µM]
COc1c2c(cc3c1C(O)N1CC[C@]34[C@H]3O[C@H]3[C@H](OC)C[C@@H]14)OCO2 (some centres not stated)	> 100	14.2 µM	> 100 µM	> 100 µM	> 100 µM	> 100 µM	96.7	> 100 µM	> 100 µM	> 100 µM									
OCCOCn1cc(Cn2ncc3c(SCc4ccccc4)ncnc32)nn1	> 100		> 100 µM	> 100 µM	> 100 µM	> 100 µM	99.2	> 100 µM	> 100 µM	> 100 µM									
O=C(CCN1CC2CCC(CC2)C1)c1cccs1	20.9	4.81 µM	42 µM	29.4 µM	36.7 µM	37.5 µM	36.3	42.4 µM	> 100 µM	62.1 µM									
CC1(C)CC(=O)C2=C(C1)NC(SSC1=C(C#N)C(c3ccc(F)cc3)C3=C(CC(C)(C)CC3=O)N1)=C(C#N)C2c1ccc(F)cc1 (configuration not stated)		136 µg/mL	47.3 µg/mL	72.3 µg/mL	68.2 µg/mL	> 150 µg/mL		49.9 µg/mL	> 150 µg/mL	128 µg/mL	34.1 µg/mL	26.5 µg/mL	32.3 (≈ 49.3 µM)	31.1 (≈ 47.5 µM)	47.8 (≈ 73 µM)	40.9 (≈ 62.5 µM)	28.8 (≈ 44 µM)	77.1 (≈ 118 µM)	
O=C(O)C(CSC(c1ccccc1)(c1ccccc1)c1ccccc1)N=Cc1cccs1 (configuration not stated)	> 53.2	> 100 µM	> 56.2 µM	> 56 µM	43.3 µM	> 48.9 µM	> 20.1	42.3 µM	> 100 µM	63.8 µM									
NNC(=O)c1ccccc1Nc1ccccc1C(=O)NN	> 100	> 100 µM	> 100 µM	> 100 µM	> 100 µM	> 100 µM	> 100	> 100 µM	> 100 µM	> 100 µM									
NCCNc1nc(N2CCCC2)c2nc(Cl)c(NCc3ccccc3)nc2n1	3.08	6.87 µM	2.93 µM	3.31 µM	5.46 µM	3.54 µM	3.31		3.91 µM	33.1 µM									
CCC(C)C1NC(=O)C2CCCN2C(=O)C(CC2CO2)OC(=O)CCNC(=O)C(C)N(C)C(=O)C(C(C)C)N(C)C1=O (configuration not stated)				> 100 µM	> 100 µM	> 100 µM	> 100	> 100 µM	> 100 µM	> 100 µM									
O=S(=O)(/N=C(\NO)Nc1ccc(Cl)cc1)c1ccc(S(=O)(=O)c2ccccc2)s1	> 100	51.6 µM	30.4 µM	> 100 µM	52.1 µM	29.1 µM	37.7	89.6 µM	> 100 µM	> 100 µM									
CS(=O)(=O)c1nc(-c2cc3c(c(S(C)(=O)=O)n2)CCCC3)cc2c1CCCC2	> 100	> 100 µM	> 100 µM	> 100 µM	> 100 µM		> 77.6	> 69.5 µM	> 100 µM	> 100 µM									
O=S(=O)(O)c1cccc2c(N=Nc3c(O)ccc4ccccc34)cccc12	> 100	> 100 µM	> 100 µM		> 100 µM		> 100	> 100 µM	> 100 µM	> 100 µM									
C/C(=N\NC(=O)c1cccnc1)c1cccc(/C(C)=N/NC(=O)c2cccnc2)n1		> 100 µM	> 100 µM		> 100 µM	34.6 µM	6.76	19.3 µM	> 100 µM		3.49 µM	4.24 µM							1.58
CC(=O)N(C)c1ccc2c(ccc[n+]2[O-])c1[N+](=O)[O-]	> 100	> 100 µM	> 100 µM		> 100 µM	> 100 µM		> 100 µM											
Nc1ccccc1N/C(=C\C(=O)C(Cl)(Cl)Cl)c1ccccc1	54.3	> 100 µM	38.2 µM	83.4 µM	> 100 µM	69.4 µM	35	> 100 µM	> 100 µM	> 100 µM									
C[C@]12CC[C@@H]3c4ccccc4CC[C@H]3[C@@H]1CC[C@@H]2O	> 100	> 100 µM	> 100 µM		> 100 µM	> 100 µM	> 100	> 100 µM	> 100 µM										
CC(Sc1ccccc1)C(CO)(CO)[N+](=O)[O-] (configuration not stated)		7.51 µM	31.6 µM		33.3 µM	50.7 µM	26.3	28.7 µM	43.8 µM										
C[C@]12CCC(=O)C=C1CC[C@@H]1[C@@H]2[C@@H](O)C[C@@]2(C)[C@H]1CC[C@]2(O)C(=O)CO	> 100	> 100 µM	> 100 µM	> 100 µM	> 100 µM	> 100 µM	> 100	> 100 µM	> 100 µM	> 100 µM									
Clc1ccc(Nc2nc(Cl)c3[nH]cnc3n2)cc1Cl	30.8	48.2 µM	86.7 µM	> 100 µM	73.2 µM	62.7 µM	56.7	> 100 µM	> 100 µM	> 100 µM									
COC(=O)C1C(C)N1C (configuration not stated)		> 100 µM			> 100 µM	> 100 µM	> 100	> 100 µM	> 100 µM										
CN1C2CCC1C(C(O)c1ccccc1[N+](=O)[O-])C(=O)C2 (configuration not stated)	> 100	> 100 µM	> 100 µM	> 100 µM	> 100 µM	> 100 µM	> 100	> 100 µM	> 100 µM	91.9 µM									
